These results are taken from patent publication US20230116972A1, “CD38 MODULATORS AND METHODS OF USE THEREOF” (Cytokinetics, Inc., priority 2021, published 2023).

In assay [1] the target is T1, mouse CD38 (Mus musculus, UniProt P56528).
T1 sequence (P56528 1-304): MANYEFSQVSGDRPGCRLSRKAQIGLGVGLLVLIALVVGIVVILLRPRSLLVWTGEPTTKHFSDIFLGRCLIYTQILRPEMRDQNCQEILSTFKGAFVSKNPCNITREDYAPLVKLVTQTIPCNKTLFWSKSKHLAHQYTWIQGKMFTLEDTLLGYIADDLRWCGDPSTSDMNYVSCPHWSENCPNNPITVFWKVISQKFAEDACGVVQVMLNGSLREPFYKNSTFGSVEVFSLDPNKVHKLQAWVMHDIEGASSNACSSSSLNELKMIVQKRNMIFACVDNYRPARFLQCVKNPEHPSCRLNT
Put plainly: mouse recombinant CD38 enzyme assay (hydrolysis of NAD+). Type of assay: biochemical. The note with it: read-out: mCD38 BioChem IC50. In a few lines:
(§1)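 Steps: compound and recombinant enzyme are mixed, NAD+ is added, and the reaction runs 60 min at room temperature. An ADH/ethanol mix containing a CD38 inhibitor halts hydrolysis and forms NADH. After NaOH quench, resazurin plus diaphorase produce fluorescent resorufin, read at 540/590 nm.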

Assay [2] concerns the target T2, human CD38 (Homo sapiens, UniProt P28907).
T2 sequence (P28907 1-300): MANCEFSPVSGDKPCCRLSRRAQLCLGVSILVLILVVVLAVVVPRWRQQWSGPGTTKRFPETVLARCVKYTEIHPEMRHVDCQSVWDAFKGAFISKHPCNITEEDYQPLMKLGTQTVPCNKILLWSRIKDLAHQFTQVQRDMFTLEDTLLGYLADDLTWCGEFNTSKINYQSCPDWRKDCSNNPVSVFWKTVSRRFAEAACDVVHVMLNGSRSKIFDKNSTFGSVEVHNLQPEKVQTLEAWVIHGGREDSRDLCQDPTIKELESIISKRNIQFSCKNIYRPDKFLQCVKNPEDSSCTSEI
Briefly: human recombinant CD38 enzyme assay (hydrolysis of NAD+). Type of assay: biochemical. The conditions noted are these: human recombinant CD38, 0.4 nM enzyme, 62.5 μM NAD+; read-out: hCD38 BioChem IC50. In a few lines: as §1

Assay [3] addresses T3, endogenous CD38 in HL60 cells (Homo sapiens, UniProt P28907).
T3 construct: endogenous in cells; host or cells: HL60 (leukemic cells, treated with all-trans retinoic acid)
T3 sequence (P28907 1-300): T2 sequence (P28907 1-300)
Put plainly: cellular CD38 assay in HL60 cells (cellular NAD levels). Type of assay: cell-based. The note with it: all-trans retinoic acid, 24 hours, read-out: hCD38 HL60 ATRA NAD Cell Diaphorase IC50. In a few lines: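 Endogenous CD38 inhibition is inferred from NAD levels in HL60 cells after 24 h compound exposure at 20000 cells per well. A lytic cycling readout (0.2 U/mL diaphorase, 0.8 U/mL alcohol dehydrogenase, resazurin, FMN, ethanol, 0.2% Triton X-100, Tris/EDTA pH 8.4) ran 60 min at ambient temperature. Resorufin fluorescence was read at 540/590 nm.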

The structures appear in SMILES notation.

Turning to `Cn1cncc1-c1nc(C(=O)Nc2ccc(C(F)F)nc2)cc(C(C)(C)O)n1` [Compound 159, N-(6-(difluoromethyl)pyridin-3-yl)-6-(2-hydroxypropan-2-yl)-2-(1-methyl-1H-imidazol-5-yl)pyrimidine-4-carboxamide], the figures for the IC50 in assay [1], in assay [2] and in assay [3] were 0.005 µM, 0.009 µM and 1.09 µM, respectively.

Regarding `O=C(N[C@H]1CC[C@H](C(F)F)CC1)c1cc(C2CC2)nc(-n2ccnc2)n1` [Compound 161, 6-cyclopropyl-N-((1r,4r)-4-(difluoromethyl)cyclohexyl)-2-(1H-imidazol-1-yl)pyrimidine-4-carboxamide], the IC50 (in general, the concentration needed to halve the response being measured) was 0.004 µM in assay [1], 0.026 µM in assay [2] and 2.45 µM in assay [3].

With `O=C(Nc1ccc(C(F)F)nc1)c1cc(C2CC2)nc(-n2ccnc2)n1` [Compound 162, 6-cyclopropyl-N-(6-(difluoromethyl)pyridin-3-yl)-2-(1H-imidazol-1-yl)pyrimidine-4-carboxamide], the half-maximal inhibitory concentration (IC50) in assay [1] worked out at 0.001 µM; in assay [2], 0.003 µM; in assay [3], 0.718 µM.

Consider `COc1cc(C(=O)Nc2ccc(C(F)F)nc2)nc(-c2cncs2)c1` [Compound 163, N-(6-(Difluoromethyl)pyridin-3-yl)-4-methoxy-6-(thiazol-5-yl)picolinamide], for which the IC50 is 0.082 µM in assay [1], 0.375 µM in assay [2] and 11.7 µM in assay [3].

For the compound `C[C@H]1CC[C@H](NC(=O)c2cc(C(F)(F)F)nc(-n3ccnc3)n2)CC1` [Compound 164, 2-(1H-imidazol-1-yl)-N-((1r,4r)-4-methylcyclohexyl)-6-(trifluoromethyl)pyrimidine-4-carboxamide], the concentration for half-maximal inhibition (IC50) in assay [1] was 0.011 µM; in assay [2], 0.044 µM; in assay [3], 4 µM.

With `COCCO[C@H]1CC[C@H](NC(=O)c2cc(C(F)(F)F)nc(-c3cncn3C)n2)CC1` [Compound 165, N-((1r,4r)-4-(2-methoxyethoxy)cyclohexyl)-2-(1-methyl-1H-imidazol-5-yl)-6-(trifluoromethyl)pyrimidine-4-carboxamide], the concentration for half-maximal inhibition (IC50) in assay [1] turned out to be 0.001 µM; in assay [2] it was 0.019 µM; in assay [3], 2.98 µM.

Regarding `COc1cc(C(=O)N[C@H]2CC[C@H](C)CC2)nc(-n2ccnc2)c1` [Compound 166, 6-(1H-imidazol-1-yl)-4-methoxy-N-((1r,4r)-4-methylcyclohexyl)picolinamide], the IC50 worked out at 0.002 µM in assay [1], 0.021 µM in assay [2] and 2.24 µM in assay [3].

In the case of `CC(C)c1cc(C(=O)N[C@H]2CC[C@H](C(F)F)CC2)nc(-n2ccnc2)n1` [Compound 168, N-((1r,4r)-4-(difluoromethyl)cyclohexyl)-2-(1H-imidazol-1-yl)-6-isopropylpyrimidine-4-carboxamide], the IC50 in assay [1] worked out at 0.047 µM; in assay [2], 0.313 µM; in assay [3], 8.65 µM.

As to `CC(C)c1cc(C(=O)Nc2ccc(C(F)F)nc2)nc(-n2ccnc2)n1` [Compound 169, N-(6-(difluoromethyl)pyridin-3-yl)-2-(1H-imidazol-1-yl)-6-isopropylpyrimidine-4-carboxamide], the IC50 came to 0.015 µM in assay [1], 0.022 µM in assay [2] and 2.25 µM in assay [3].

On to `CC(C)c1cc(C(=O)Nc2ccc(C(F)(F)F)nc2)nc(-n2ccnc2)n1` [Compound 170, 2-(1H-imidazol-1-yl)-6-isopropyl-N-(6-(trifluoromethyl)pyridin-3-yl)pyrimidine-4-carboxamide], for which the results for the IC50 in assay [1], in assay [2] and in assay [3] were 0.032 µM, 0.047 µM and 4.86 µM, respectively.

On to `CO[C@H]1CC[C@H](NC(=O)c2cc(C(C)C)nc(-c3cncn3C)n2)CC1` [Compound 171, 6-isopropyl-N-((1r,4r)-4-methoxycyclohexyl)-2-(1-methyl-1H-imidazol-5-yl)pyrimidine-4-carboxamide], for which the IC50 was found to be 0.003 µM in assay [1], 0.015 µM in assay [2] and 3.73 µM in assay [3].

Regarding `CC(C)c1cc(C(=O)N[C@H]2CC[C@H](C(F)F)CC2)nc(-c2cncn2C)n1` [Compound 172, N-((1r,4r)-4-(difluoromethyl)cyclohexyl)-6-isopropyl-2-(1-methyl-1H-imidazol-5-yl)pyrimidine-4-carboxamide], the IC50 is 0.005 µM in assay [1], 0.021 µM in assay [2] and 2.95 µM in assay [3].

For the compound `CC(C)c1cc(C(=O)Nc2ccc(C(F)F)nc2)nc(-c2cncn2C)n1` [Compound 173, N-(6-(difluoromethyl)pyridin-3-yl)-6-isopropyl-2-(1-methyl-1H-imidazol-5-yl)pyrimidine-4-carboxamide], the IC50 in assay [1] was found to be 0.002 µM; in assay [2] it was 0.008 µM; in assay [3], 1.25 µM.

`CC(C)c1cc(C(=O)Nc2ccc(C(F)(F)F)nc2)nc(-c2cncn2C)n1` [Compound 174, 6-isopropyl-2-(1-methyl-1H-imidazol-5-yl)-N-(6-(trifluoromethyl)pyridin-3-yl)pyrimidine-4-carboxamide]: the concentration for half-maximal inhibition (IC50) in assay [1] is 0.004 µM; in assay [2] it was 0.008 µM; in assay [3], 1.78 µM.

`CC(C)(O)c1cc(C(=O)Nc2ccc(C(F)(F)F)nc2)nc(-n2ccnc2)n1` [Compound 175, 6-(2-hydroxypropan-2-yl)-2-(1H-imidazol-1-yl)-N-(6-(trifluoromethyl)pyridin-3-yl)pyrimidine-4-carboxamide]: the IC50 in assay [1] was determined as 0.335 µM; in assay [2], 0.33 µM; in assay [3], 6.46 µM.

For the compound `COc1cc(C(=O)Nc2ccc(C(F)F)nc2)nc(-n2ccnc2)c1` [Compound 187, N-(6-(difluoromethyl)pyridin-3-yl)-6-(1H-imidazol-1-yl)-4-methoxypicolinamide], the half-maximal inhibitory concentration (IC50) in assay [1] is 0.0019 µM; in assay [2], 0.0031 µM; in assay [3], 0.253 µM.

As to `Cn1cncc1-c1cc(C(C)(C)C)nc(C(=O)Nc2ccc(C(F)F)nc2)n1` [Compound 189, 4-(tert-butyl)-N-(6-(difluoromethyl)pyridin-3-yl)-6-(1-methyl-1H-imidazol-5-yl)pyrimidine-2-carboxamide], the results for the IC50 in assay [1], in assay [2] and in assay [3] were 0.261 µM, 0.333 µM and 8.51 µM, respectively.

For `CO[C@H]1CC[C@H](NC(=O)c2nc(C)cc(-c3cncn3C)n2)CC1` [Compound 191, N-((1r,4r)-4-methoxycyclohexyl)-4-methyl-6-(1-methyl-1H-imidazol-5-yl)pyrimidine-2-carboxamide], the results for the IC50 in assay [1], in assay [2] and in assay [3] were 0.0045 µM, 0.0353 µM and 3.28 µM, respectively.

On to `COc1cc(-c2cncn2C)nc(C(=O)N[C@H]2CC[C@H](OC)CC2)n1` [Compound 192, 4-Methoxy-N-((1r,4r)-4-methoxycyclohexyl)-6-(1-methyl-1H-imidazol-5-yl)pyrimidine-2-carboxamide], for which the results for the IC50 in assay [1], in assay [2] and in assay [3] were 0.0055 µM, 0.0461 µM and 3.76 µM, respectively.

With `CO[C@H]1CC[C@H](NC(=O)c2cc(C3CCOCC3)nc(-n3ccnc3)n2)CC1` [Compound 193, 2-(1H-imidazol-1-yl)-N-((1r,4r)-4-methoxycyclohexyl)-6-(tetrahydro-2H-pyran-4-yl)pyrimidine-4-carboxamide], the half-maximal inhibitory concentration (IC50) in assay [1] was found to be 0.0398 µM; in assay [2], 0.131 µM; in assay [3], 11.1 µM.
